{"source": "patent US4784999A", "about": "“Novel treatment” (Beecham Wuelfing GmbH & Co. KG, priority 1986, dated 1988)", "key": {"[1]": {"system": "Triethyltin-induced cerebral oedema", "assay": "Triethyltin-induced cerebral oedema in the rat", "assay_type": "in vivo", "conditions": "2×50 mg/kg orally, twice daily for 5 days of triethyltin intoxication; Wistar rats; brain water content; p<0.05 (student's t-test)", "description": "The cerebral oedema is induced by oral administrations repeated for 5 consecutive days--one administration per day--of triethyltin chloride at a dose of 2 mg/kg. The test compound is also administered orally twice daily as aqueous solution or suspension at a dose of 1 ml/100 g body-weight; these administrations are given during the 5 days of intoxication with tin. Three groups of 10 male specific pathogen-free (SPF) Wistar rats of 280±10 g body-weight are used:\n1 group intoxicated with triethyltin\n1 group intoxicated with triethyltin and treated with the studied compound The rats are killed on the evening of the fifth day; the brain is removed, weighed fresh and after desiccation to constant weight and the water content of each brain is calculated [H2 O]=fresh weight-dry weight.\nThe following are then calculated the mean water content (M+Sm %) of each group; the protection index P due to the administered compound: [formula]"}, "[2]": {"system": "recall latency in the gerbil following transient forebrain ischaemia", "assay": "Gerbil Ischaemic Deficit Passive Avoidance Test", "assay_type": "in vivo, Mongolian gerbils", "conditions": "Ischaemia and Test Compound, 10 mg/kg p.o., seven administrations; gerbils after 5 min bilateral carotid ligation; significantly different from ischaemic controls (p<0.05)", "description": "Mongolian gerbils were conditioned to avoid entering a dark compartment by means of a footshock (maximally 50 V, 2 s duration) received when entering from the light section of a two compartment box. Recollection of the footshock was examined 24 h later by replacing the gerbils in the two compartment box and measuring the recall latency, the time taken to re-enter the dark compartment.\nA learning or memory deficit was induced in the gerbils by a transient (5 min) bilateral carotid artery ligation, performed 24 h prior to conditioning, under light hexobarbital anaesthesia.\nCompounds, being examined for an effect on learning or memory in gerbils which had undergone carotid occlusion, were administered seven times during the experiment The initial administration was during the period of forebrain ischaemia, the third and seventh administrations were 10 min prior to conditioning and recall testing, respectively, and the remainder were given at intermediate time points.\nA long recall latency indicates good information acquisition or retrieval."}, "[3]": {"system": "rat ischaemic gastrocnemius muscle", "assay": "Oxygen tension (pO2) of rat ischaemic gastrocnemius muscle", "assay_type": "in vivo", "conditions": "0.5 mg/kg administered intravenously; ischaemic hindlimb gastrocnemius muscle, anaesthetized rats; n=12; p<0.01 signed rank test"}, "[4]": {"target": "cAMP phosphodiesterase of rat brain", "assay": "Inhibitory activity on cAMP phosphodiesterase of rat brain (Dixon plot)", "assay_type": "biochemical", "conditions": "homogenates of rat brain; 0.31 μM cyclic AMP as substrate; extrapolated from Dixon plot; read-out: apparent Ki", "description": "The activity of cyclic AMP phosphodiesterase in homogenates of rat brain was measured in the presence of various concentrations of the compound 1,3-di-n-butyl-7-(2-oxypropyl)xanthine using 0.31 μM cyclic AMP as substration The reciprocal of the reaction rate was plotted on the y axis against each concentration of the compound on the x axis (Dixon plot). The apparent Ki value was estimated by extrapolating the steeper linear portion of the Dixon plot to the x axis and obtaining the negative intercept on the x axis."}}, "note": "pKi: −log10 of the molar value."}
{"smiles": "CCCCn1c(=O)c2c(ncn2CC(C)=O)n(CCCC)c1=O", "note": "[1,3-di-n-butyl-7-(2-oxypropyl)xanthine]", "values": [{"measurement": "protection index P", "setting": "[1]", "value": 65, "unit": "%"}, {"measurement": "Percentage of animals with recall latencies >60s", "setting": "[2]", "value": 36}, {"measurement": "mean (±SEM) increase in pO2", "setting": "[3]", "value": "5.7±2.1", "unit": "torr"}, {"measurement": "pKi", "setting": "[4]", "value": 4.19}]}
